# According to PubChem BioAssay (NCI):
#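 Growth conditions: 96-well plates. Treatment: test compound, 48 hours, 5 concentrations. Analysis: linear interpolation between bracketing concentrations; unreached endpoints set to highest concentration. GI50: concentration for 50% inhibition of growth. At the TGI there is no net growth.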
# Experiments:
# Experiment in all cases: NCI anticancer screen, dose series, 48 h
# [1] = tested on: MALME-3M melanoma
# [2] = tested on: BT-549 breast
# [3] = tested on: MDA-MB-468 breast
# [4] = tested on: MCF7 breast
# [5] = tested on: DU-145 prostate
# [6] = tested on: PC-3 prostate
# [7] = tested on: A549 NSCLC
# [8] = tested on: K-562 leukemia
# [9] = tested on: SK-MEL-5 melanoma
# [10] = tested on: UO-31 renal
# [11] = tested on: EKVX NSCLC
# [12] = tested on: SK-MEL-2 melanoma
# [13] = tested on: MOLT-4 leukemia
# [14] = tested on: IGROV1 ovarian
# [15] = tested on: T-47D breast
# [16] = tested on: UACC-62 melanoma
# [17] = tested on: MDA-MB-435
# [18] = tested on: OVCAR-5 ovarian
# [19] = tested on: NCI-H522 lung
# [20] = tested on: HT29 colon
# [21] = tested on: 786-0 renal
# [22] = tested on: HCT-15 colon
# [23] = tested on: SF-539 CNS
# [24] = tested on: SF-295 CNS
# [25] = tested on: HCC-2998 colon
# [26] = tested on: HOP-62 NSCLC
# [27] = tested on: ACHN renal
# [28] = tested on: RPMI-8226 leukemia
# [29] = tested on: HL-60(TB) leukemia
# [30] = tested on: SNB-75 CNS
# [31] = tested on: NCI-H226 lung
# [32] = tested on: UACC-257 melanoma
# [33] = tested on: OVCAR-3 ovarian
# [34] = tested on: SNB-19 CNS
# [35] = tested on: NCI-H460 lung
# [36] = tested on: SK-OV-3 ovarian
# [37] = tested on: HCT-116 colon
# [38] = tested on: U251 CNS
# [39] = tested on: NCI-H23 lung
# [40] = tested on: SF-268 CNS
# [41] = tested on: HS 578T breast
# [42] = tested on: OVCAR-4 ovarian
# [43] = tested on: HOP-92 NSCLC
# [44] = tested on: MDA-MB-231 breast
# [45] = tested on: A498 renal
# [46] = tested on: RXF 393 renal
# [47] = tested on: KM12 colon
# [48] = tested on: SW-620 colon
# [49] = tested on: LOX IMVI melanoma
# [50] = tested on: CAKI-1 renal
# [51] = tested on: SN12C renal
# [52] = tested on: OVCAR-8 ovarian
# [53] = tested on: M14 melanoma
# [54] = tested on: COLO 205 colon
# [55] = tested on: CCRF-CEM leukemia
# [56] = tested on: SK-MEL-28 melanoma
# [57] = tested on: TK-10 renal
# [58] = tested on: NCI/ADR-RES ovarian
smiles,measurement,setting,value
CCOc1ccccc1NC(=O)N/C(N)=N/c1nc2ccccc2s1,GI50,[1],< 18.5 nM
same,TGI,[1],45100 nM
same,GI50,[2],24.6 nM
same,TGI,[2],126 nM
same,GI50,[3],23.3 nM
same,TGI,[3],61.5 nM
same,GI50,[4],26.5 nM
same,TGI,[4],23300 nM
same,GI50,[5],28.7 nM
same,TGI,[5],11900 nM
same,GI50,[6],25.2 nM
same,TGI,[6],> 74600 nM
same,GI50,[7],53.2 nM
same,TGI,[7],> 53100 nM
same,GI50,[8],< 10 nM
same,TGI,[8],> 35600 nM
same,GI50,[9],< 14.1 nM
same,TGI,[9],34.1 nM
same,GI50,[10],< 30.8 nM
same,TGI,[10],> 88600 nM
same,GI50,[11],45.8 nM
same,TGI,[11],35000 nM
same,GI50,[12],25.9 nM
same,TGI,[12],42500 nM
same,GI50,[13],38.8 nM
same,TGI,[13],> 33500 nM
same,GI50,[14],27.4 nM
same,TGI,[14],30100 nM
same,GI50,[15],13900 nM
same,TGI,[15],> 100000 nM
same,GI50,[16],< 10 nM
same,TGI,[16],> 55600 nM
same,GI50,[17],< 10 nM
same,TGI,[17],14.6 nM
same,GI50,[18],37.8 nM
same,TGI,[18],> 41000 nM
same,GI50,[19],< 10 nM
same,TGI,[19],20.1 nM
same,GI50,[20],21 nM
same,TGI,[20],67.3 nM
same,GI50,[21],29.6 nM
same,TGI,[21],13300 nM
same,GI50,[22],< 16.8 nM
same,TGI,[22],12600 nM
same,GI50,[23],< 11.9 nM
same,TGI,[23],< 22.5 nM
same,GI50,[24],< 16.4 nM
same,TGI,[24],13800 nM
same,GI50,[25],24.2 nM
same,TGI,[25],10900 nM
same,GI50,[26],< 20 nM
same,TGI,[26],20000 nM
same,GI50,[27],< 15.2 nM
same,TGI,[27],22700 nM
same,GI50,[28],37.1 nM
same,TGI,[28],> 39700 nM
same,GI50,[29],17.7 nM
same,TGI,[29],59.6 nM
same,GI50,[30],< 10 nM
same,TGI,[30],> 69100 nM
same,GI50,[31],43.5 nM
same,TGI,[31],1480 nM
same,GI50,[32],32000 nM
same,TGI,[32],> 100000 nM
same,GI50,[33],< 10 nM
same,TGI,[33],11400 nM
same,GI50,[34],31 nM
same,TGI,[34],53800 nM
same,GI50,[35],26.4 nM
same,TGI,[35],10900 nM
same,GI50,[36],49.1 nM
same,TGI,[36],> 77400 nM
same,GI50,[37],< 15.7 nM
same,TGI,[37],310 nM
same,GI50,[38],< 16.4 nM
same,TGI,[38],13700 nM
same,GI50,[39],< 18.6 nM
same,TGI,[39],23000 nM
same,GI50,[40],84.6 nM
same,TGI,[40],> 100000 nM
same,GI50,[41],< 10.7 nM
same,TGI,[41],> 78600 nM
same,GI50,[42],11100 nM
same,TGI,[42],63600 nM
same,GI50,[43],6330 nM
same,TGI,[43],> 58700 nM
same,GI50,[44],< 16.2 nM
same,TGI,[44],744 nM
same,GI50,[45],22100 nM
same,TGI,[45],44600 nM
same,GI50,[46],< 12.9 nM
same,TGI,[46],40000 nM
same,GI50,[47],< 13.8 nM
same,TGI,[47],> 45800 nM
same,GI50,[48],< 17.5 nM
same,TGI,[48],> 42300 nM
same,GI50,[49],< 14.8 nM
same,TGI,[49],15100 nM
same,GI50,[50],< 14.1 nM
same,TGI,[50],> 49000 nM
same,GI50,[51],27.2 nM
same,TGI,[51],13800 nM
same,GI50,[52],< 17.2 nM
same,TGI,[52],26900 nM
same,GI50,[53],< 14 nM
same,TGI,[53],23200 nM
same,GI50,[54],30.1 nM
same,TGI,[54],106 nM
same,GI50,[55],28.9 nM
same,TGI,[55],> 32500 nM
same,GI50,[56],14500 nM
same,TGI,[56],> 100000 nM
same,GI50,[57],> 39400 nM
same,TGI,[57],> 100000 nM
same,GI50,[58],< 10 nM
same,TGI,[58],29.8 nM
